Measured values reported in patent US20260022143A1, “Cyclic Peptide Inhibitors of IL-23” (JANSSEN PHARMACEUTICA NV, priority 2022, published 2026).
pIC50: −log10 of the molar value. Starred links: 1 amine or outer side, 2 acyl side, 3 side chain; linkers in the order of their positions; H or OH if unused. Positions of bridges follow the written chain, without caps; N, C: chain ends. Non-standard residues stand in square brackets, D forms with d. Residues, ends and D or L forms follow the SMILES beside them. *: point of attachment. X43 = C[N+](C)(C)CCCCCc1cn(-c2ccc(C[C@H](N[*:1])C(=O)[*:2])cc2)nn1; X27 = C[N+](C)(C)CCc1cn(-c2ccc(C[C@H](N[*:1])C(=O)[*:2])cc2)nn1; X16 = C[N+](C)(C)Cc1cn(-c2ccc(C[C@H](N[*:1])C(=O)[*:2])cc2)nn1; Me3N+(CH2)2O(CH2)2O(CH2)2CO = C[N+](C)(C)CCOCCOCCC(=O)*; Phe(4-N3) = [N-]=[N+]=Nc1ccc(C[C@H](N)C(=O)O)cc1; Trp(7-Me) = Cc1cccc2c(C[C@H](N)C(=O)O)c[nH]c12; Lys(Me3) = C[N+](C)(C)CCCC[C@H](N)C(=O)O; Dab(NMeAc) = CC(=O)N(C)CC[C@H](N)C(=O)O; 2Nal = N[C@@H](Cc1ccc2ccccc2c1)C(=O)O; AEF = NCCOc1ccc(C[C@H](N)C(=O)O)cc1; 3Pal = N[C@@H](Cc1cccnc1)C(=O)O; Cit = NC(=O)NCCC[C@H](N)C(=O)O; Lys(Me) = CNCCCC[C@H](N)C(=O)O; Pen = CC(C)(S)[C@H](N)C(=O)O; Thp = NC1(C(=O)O)CCOCC1; X3 = C[N+](C)(C)CCCCC*; Sar = CNCC(=O)O

What was measured:
IL-23R = target: T1, IL-23R (Homo sapiens, UniProt Q5VWK5); assay: IL23R Reporter Assay; type: cell-based; details: HEK293 cells containing IL-23R, IL-12RP1 and STAT-inducible firefly luciferase reporter; 10 ng/mL IL-23 (EC90); 5 h at 37° C.; read-out: IL23R Reporter Assay
T1 construct: host or cells: HEK293
T1 sequence (Q5VWK5 24-629): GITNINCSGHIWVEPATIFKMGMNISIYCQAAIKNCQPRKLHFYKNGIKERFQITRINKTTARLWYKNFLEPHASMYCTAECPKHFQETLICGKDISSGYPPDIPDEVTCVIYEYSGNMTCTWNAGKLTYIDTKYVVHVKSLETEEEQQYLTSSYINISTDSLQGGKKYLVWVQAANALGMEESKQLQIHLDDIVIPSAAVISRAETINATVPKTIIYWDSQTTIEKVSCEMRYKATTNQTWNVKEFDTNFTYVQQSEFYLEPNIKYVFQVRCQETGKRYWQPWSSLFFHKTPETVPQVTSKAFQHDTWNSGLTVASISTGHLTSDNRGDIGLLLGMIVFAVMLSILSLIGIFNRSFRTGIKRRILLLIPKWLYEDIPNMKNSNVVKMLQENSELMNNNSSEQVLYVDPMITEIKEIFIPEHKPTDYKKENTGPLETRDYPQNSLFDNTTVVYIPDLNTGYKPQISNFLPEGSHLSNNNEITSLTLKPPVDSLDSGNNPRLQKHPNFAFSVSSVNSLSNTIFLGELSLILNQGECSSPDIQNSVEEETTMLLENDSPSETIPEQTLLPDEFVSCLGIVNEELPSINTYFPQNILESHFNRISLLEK

[1] = Exposed Polar Surface Area (EPSA); type: physicochemical; details: SFC on Chirex 3014 column; sample 1 mM DMSO stock; read-out: EPSA
Procedure, shortened: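 Chirex 3014 column, 35 °C, 4 mL/min; CO2/MeOH + 20 mM NH4 formate, 5→60% modifier at 20%/min. UV/MS detection. EPSA (Å^2) from retention time vs 8-standard calibration line; duplicates; 1 mM DMSO stock injected undiluted.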

Row | SMILES | pIC50 (IL-23R) | EPSA [1] [A^2]
1 | CC(=O)NCCCC[C@@H]1NC(=O)[C@H](Cc2c[nH]c3c(C)cccc23)NC(=O)[C@H]([C@@H](C)O)NC(=O)[C@H](CC(=O)N(C)C)NC(=O)[C@@H](NC(=O)CCOCCOCC[N+](C)(C)C)C(C)(C)SSC(C)(C)[C@@H](C(=O)N[C@@H](Cc2ccc(OCCCCC[N+](C)(C)C)cc2)C(=O)N[C@@H](Cc2ccc3ccccc3c2)C(=O)NC2(C(=O)N[C@@H](CCN(C)C(C)=O)C(=O)N[C@@H](CC(N)=O)C(=O)N[C@@H](Cc3cccnc3)C(=O)N(C)CC(=O)N(C)C)CCOCC2)NC1=O [compound 308, cPEG3aCO-Pen(3)-N(N(Me)2)-T-7MeW-K(Ac)-Pen(3)-TMAPF-2Nal-THP-Dab(NMeAc)-N-3Pya-Sar-CON(Me)2] ({Me3N+(CH2)2O(CH2)2O(CH2)2CO}-[Pen]D(NMe2)T[Trp(7-Me)]K(Ac)[Pen]Y(X3)[2Nal][Thp][Dab(NMeAc)]N[3Pal][Sar]-NMe2; disulfide 1-6) | 8.70 | 154
2 | CC(=O)N(C)CCCC[C@@H]1NC(=O)[C@H](Cc2c[nH]c3c(C)cccc23)NC(=O)[C@H]([C@@H](C)O)NC(=O)[C@H](CC(=O)N(C)C)NC(=O)[C@@H](NC(=O)CCOCCOCC[N+](C)(C)C)C(C)(C)SSC(C)(C)[C@@H](C(=O)N[C@@H](Cc2ccc(OCCN)cc2)C(=O)N[C@@H](Cc2ccc3ccccc3c2)C(=O)NC2(C(=O)N[C@@H](CCCCN(C)C(C)=O)C(=O)N[C@@H](CC(N)=O)C(=O)N[C@@H](Cc3cccnc3)C(=O)N(C)CC(=O)N(C)C)CCOCC2)NC1=O [compound 320, cPEG3aCO-Pen(3)-N(N(Me)2)-T-7MeW-K(NMeAc)-Pen(3)-AEF-2Nal-THP-K(NMeAc)-N-3Pya-Sar-CON(Me)2] ({Me3N+(CH2)2O(CH2)2O(CH2)2CO}-[Pen]D(NMe2)T[Trp(7-Me)][Lys(Me)](Ac)[Pen][AEF][2Nal][Thp][Lys(Me)](Ac)N[3Pal][Sar]-NMe2; disulfide 1-6) | 9.02 | 162
3 | CC(=O)N(C)CCCC[C@@H]1NC(=O)[C@H](Cc2c[nH]c3c(C)cccc23)NC(=O)[C@H]([C@@H](C)O)NC(=O)[C@H](CC(=O)N(C)C)NC(=O)[C@@H](NC(=O)CCOCCOCC[N+](C)(C)C)C(C)(C)SSC(C)(C)[C@@H](C(=O)N[C@@H](Cc2ccc(OCCCCC[N+](C)(C)C)cc2)C(=O)N[C@@H](Cc2ccc3ccccc3c2)C(=O)NC2(C(=O)N[C@@H](CCCCN(C)C(C)=O)C(=O)N[C@@H](CC(N)=O)C(=O)N[C@@H](Cc3cccnc3)C(=O)N(C)CC(N)=O)CCOCC2)NC1=O [compound 326, cPEG3aCO-Pen(3)-N(N(Me)2)-T-7MeW-K(NMeAc)-Pen(3)-TMAPF-2Nal-THP-K(NMeAc)-N-3Pya-Sar-CONH2] ({Me3N+(CH2)2O(CH2)2O(CH2)2CO}-[Pen]D(NMe2)T[Trp(7-Me)][Lys(Me)](Ac)[Pen]Y(X3)[2Nal][Thp][Lys(Me)](Ac)N[3Pal][Sar]-NH2; disulfide 1-6) | 9.07 | 157
4 | CC(=O)N(C)CCCC[C@@H]1NC(=O)[C@H](Cc2c[nH]c3c(C)cccc23)NC(=O)[C@H]([C@@H](C)O)NC(=O)[C@H](CC(=O)N(C)C)NC(=O)[C@@H](NC(=O)CCOCCOCC[N+](C)(C)C)C(C)(C)SSC(C)(C)[C@@H](C(=O)N[C@@H](Cc2ccc(OCCCCC[N+](C)(C)C)cc2)C(=O)N[C@@H](Cc2ccc3ccccc3c2)C(=O)NC2(C(=O)N[C@@H](CCCNC(N)=O)C(=O)N[C@@H](CC(N)=O)C(=O)N[C@@H](Cc3cccnc3)C(=O)N(C)CC(=O)N(C)C)CCOCC2)NC1=O [compound 327, cPEG3aCO-Pen(3)-N(N(Me)2)-T-7MeW-K(NMeAc)-Pen(3)-TMAPF-2Nal-THP-Cit-N-3Pya-Sar-CON(Me)2] ({Me3N+(CH2)2O(CH2)2O(CH2)2CO}-[Pen]D(NMe2)T[Trp(7-Me)][Lys(Me)](Ac)[Pen]Y(X3)[2Nal][Thp][Cit]N[3Pal][Sar]-NMe2; disulfide 1-6) | 8.92 | 157
5 | CC(=O)N(C)CCCC[C@@H]1NC(=O)[C@H](Cc2c[nH]c3c(C)cccc23)NC(=O)[C@H]([C@@H](C)O)NC(=O)[C@H](CCCC[N+](C)(C)C)NC(=O)[C@@H](NC(=O)CCOCCOCC[N+](C)(C)C)C(C)(C)SSC(C)(C)[C@@H](C(=O)N[C@@H](Cc2ccc(OCCCCC[N+](C)(C)C)cc2)C(=O)N[C@@H](Cc2ccc3ccccc3c2)C(=O)NC2(C(=O)N[C@@H](CCCCN(C)C(C)=O)C(=O)N[C@@H](CC(N)=O)C(=O)N[C@@H](Cc3cccnc3)C(=O)N(C)CC(=O)N(C)C)CCOCC2)NC1=O [compound 328, cPEG3aCO-Pen(3)-K(Me)3-T-7MeW-K(NMeAc)-Pen(3)-TMAPF-2Nal-THP-K(NMeAc)-N-3Pya-Sar-CON(Me)2] ({Me3N+(CH2)2O(CH2)2O(CH2)2CO}-[Pen][Lys(Me3)]T[Trp(7-Me)][Lys(Me)](Ac)[Pen]Y(X3)[2Nal][Thp][Lys(Me)](Ac)N[3Pal][Sar]-NMe2; disulfide 1-6) | 8.92 | 159
6 | CC(=O)N(C)CCCC[C@@H]1NC(=O)[C@H](Cc2c[nH]c3c(C)cccc23)NC(=O)[C@H]([C@@H](C)O)NC(=O)[C@H](CC(=O)N(C)C)NC(=O)[C@@H](NC(=O)CCOCCOCC[N+](C)(C)C)C(C)(C)SSC(C)(C)[C@@H](C(=O)N[C@@H](Cc2ccc(N=[N+]=[N-])cc2)C(=O)N[C@@H](Cc2ccc3ccccc3c2)C(=O)NC2(C(=O)N[C@@H](CCCCN(C)C(C)=O)C(=O)N[C@@H](CC(N)=O)C(=O)N[C@@H](Cc3cccnc3)C(=O)N(C)CC(=O)N(C)C)CCOCC2)NC1=O [compound 331, cPEG3aCO-Pen(3)-N(N(Me)2)-T-7MeW-K(NMeAc)-Pen(3)-F(4N3)-2Nal-THP-K(NMeAc)-N-3Pya-Sar-CON(Me)2] ({Me3N+(CH2)2O(CH2)2O(CH2)2CO}-[Pen]D(NMe2)T[Trp(7-Me)][Lys(Me)](Ac)[Pen][Phe(4-N3)][2Nal][Thp][Lys(Me)](Ac)N[3Pal][Sar]-NMe2; disulfide 1-6) | 8.92 | 153
7 | CC(=O)N(C)CCCC[C@@H]1NC(=O)[C@H](Cc2c[nH]c3c(C)cccc23)NC(=O)[C@H]([C@@H](C)O)NC(=O)[C@H](CC(=O)N(C)C)NC(=O)[C@@H](NC(=O)CCOCCOCC[N+](C)(C)C)C(C)(C)SSC(C)(C)[C@@H](C(=O)N[C@@H](Cc2ccc(-n3cc(C[N+](C)(C)C)nn3)cc2)C(=O)N[C@@H](Cc2ccc3ccccc3c2)C(=O)NC2(C(=O)N[C@@H](CCCCN(C)C(C)=O)C(=O)N[C@@H](CC(N)=O)C(=O)N[C@@H](Cc3cccnc3)C(=O)N(C)CC(=O)N(C)C)CCOCC2)NC1=O [compound 332, cPEG3aCO-Pen(3)-N(N(Me)2)-T-7MeW-K(NMeAc)-Pen(3)-F(4TzlTMA1)-2Nal-THP-K(NMeAc)-N-3Pya-Sar-CON(Me)2] ({Me3N+(CH2)2O(CH2)2O(CH2)2CO}-[Pen]D(NMe2)T[Trp(7-Me)][Lys(Me)](Ac)[Pen][X16][2Nal][Thp][Lys(Me)](Ac)N[3Pal][Sar]-NMe2; disulfide 1-6) | 8.92 | 158
8 | CC(=O)N(C)CCCC[C@@H]1NC(=O)[C@H](Cc2c[nH]c3c(C)cccc23)NC(=O)[C@H]([C@@H](C)O)NC(=O)[C@H](CC(=O)N(C)C)NC(=O)[C@@H](NC(=O)CCOCCOCC[N+](C)(C)C)C(C)(C)SSC(C)(C)[C@@H](C(=O)N[C@@H](Cc2ccc(-n3cc(CC[N+](C)(C)C)nn3)cc2)C(=O)N[C@@H](Cc2ccc3ccccc3c2)C(=O)NC2(C(=O)N[C@@H](CCCCN(C)C(C)=O)C(=O)N[C@@H](CC(N)=O)C(=O)N[C@@H](Cc3cccnc3)C(=O)N(C)CC(=O)N(C)C)CCOCC2)NC1=O [compound 333, cPEG3aCO-Pen(3)-N(N(Me)2)-T-7MeW-K(NMeAc)-Pen(3)-F(4TzlTMA2)-2Nal-THP-K(NMeAc)-N-3Pya-Sar-CON(Me)2] ({Me3N+(CH2)2O(CH2)2O(CH2)2CO}-[Pen]D(NMe2)T[Trp(7-Me)][Lys(Me)](Ac)[Pen][X27][2Nal][Thp][Lys(Me)](Ac)N[3Pal][Sar]-NMe2; disulfide 1-6) | 8.74 | 159
9 | CC(=O)N(C)CCCC[C@@H]1NC(=O)[C@H](Cc2c[nH]c3c(C)cccc23)NC(=O)[C@H]([C@@H](C)O)NC(=O)[C@H](CC(=O)N(C)C)NC(=O)[C@@H](NC(=O)CCOCCOCC[N+](C)(C)C)C(C)(C)SSC(C)(C)[C@@H](C(=O)N[C@@H](Cc2ccc(-n3cc(CCCCC[N+](C)(C)C)nn3)cc2)C(=O)N[C@@H](Cc2ccc3ccccc3c2)C(=O)NC2(C(=O)N[C@@H](CCCCN(C)C(C)=O)C(=O)N[C@@H](CC(N)=O)C(=O)N[C@@H](Cc3cccnc3)C(=O)N(C)CC(=O)N(C)C)CCOCC2)NC1=O [compound 335, cPEG3aCO-Pen(3)-N(N(Me)2)-T-7MeW-K(NMeAc)-Pen(3)-F(4TzlTMA5)-2Nal-THP-K(NMeAc)-N-3Pya-Sar-CON(Me)2] ({Me3N+(CH2)2O(CH2)2O(CH2)2CO}-[Pen]D(NMe2)T[Trp(7-Me)][Lys(Me)](Ac)[Pen][X43][2Nal][Thp][Lys(Me)](Ac)N[3Pal][Sar]-NMe2; disulfide 1-6) | 8.92 | 153
